The nature of series [1]: Clearance of 99m-Tc-IMP-192 in BALB/c mice. It is filed as in vivo.
Series [2] is described as follows: Pretargeting: 125-I-hMN-14 × 734 bsAb, 24 h later 99m-Tc-IMP-192, biodistribution. It is filed as in vivo, Nude mice. The note with it: female, mouse, total radioactivity; for tissue uptake at 0.5 h: 30 min post peptide; for tissue uptake at 1 h: 1 h post peptide; for tissue uptake at 3 h: 3 h post peptide; for tissue uptake at 24 h: 24 h post peptide.
The nature of series [3]: Control group: 99m-Tc-IMP-192 alone. The note with it: female, nude (Taconic NCRNU), mouse, total radioactivity. It is filed as in vivo, nude mice.
Series [4] is classed as in vitro ADME, mouse. The source says:
The peptide was monitored as described above by HPLC.

Series [5] deals with peptide containing a single HSG substituent and a thiol (mono HSG peptide). Description: BIAcore, mono HSG peptide coupled to a CM-5 chip. On the technique in general: In SPR one partner is held on a chip, and binding of the other changes the refractive index at the surface.
Series [6] concerns the target DOTA-Phe-Lys(HSG)-D-Tyr-Lys(HSG)-NH2 (IMP 241). Description: in vivo pretargeting, GW-39 tumors, 3 h after 111In-IMP-241.
Series [7] addresses carcinoembryonic antigen (CEA) (UniProt P06731). Kind of series: SE-HPLC, 125I-labeled bsMAb with an excess of CEA.
The target is the same in series [8]. Description: immunoreactivity of 99mTc-hMN-14 Fab′; method and antigen not given.
Setting [9] is: Cys Challenge 1 mM in 0.05 M phosphate pH 7.5 Room Temp., 1 hr.
The mark [10] stands for this setting: Saline Dilution Room Temp., 19 hr.
Where [11] appears, read: Saline Dilution Room Temp., […].

Like-named read-outs stand apart in the source and are kept apart here. *1 amine or outer side, *2 acyl side, *3 side chain or, on linkers, in order; H or OH if unused. Where a SMILES comes first, the peptide text is derived from it. Side-chain parts run from the residue outwards. The star is where a group is joined. DOTA = O=C(O)CN1CCN(CC(=O)O)CCN(CC(=O)*)CCN(CC(=O)O)CC1; DTPA = O=C(O)CN(CCN(CC(=O)O)CC(=O)O)CCN(CC(=O)O)CC(=O)*; NH(2-(imidazol-4-yl)ethyl) = c1ncc(CCN*)[nH]1; Suc = O=C(CCC(=O)[*:2])[*:1]; X1 = NC(=S)NN=CC(=O)*

One may read the tissue uptake as the percentage of the injected dose found per gram of tissue. The term Kd denotes a measure of binding affinity in units of concentration. Low readings indicate a tighter complex, high ones a looser complex.

Sequence of carcinoembryonic antigen (CEA) (P06731 35-685 limits assumed): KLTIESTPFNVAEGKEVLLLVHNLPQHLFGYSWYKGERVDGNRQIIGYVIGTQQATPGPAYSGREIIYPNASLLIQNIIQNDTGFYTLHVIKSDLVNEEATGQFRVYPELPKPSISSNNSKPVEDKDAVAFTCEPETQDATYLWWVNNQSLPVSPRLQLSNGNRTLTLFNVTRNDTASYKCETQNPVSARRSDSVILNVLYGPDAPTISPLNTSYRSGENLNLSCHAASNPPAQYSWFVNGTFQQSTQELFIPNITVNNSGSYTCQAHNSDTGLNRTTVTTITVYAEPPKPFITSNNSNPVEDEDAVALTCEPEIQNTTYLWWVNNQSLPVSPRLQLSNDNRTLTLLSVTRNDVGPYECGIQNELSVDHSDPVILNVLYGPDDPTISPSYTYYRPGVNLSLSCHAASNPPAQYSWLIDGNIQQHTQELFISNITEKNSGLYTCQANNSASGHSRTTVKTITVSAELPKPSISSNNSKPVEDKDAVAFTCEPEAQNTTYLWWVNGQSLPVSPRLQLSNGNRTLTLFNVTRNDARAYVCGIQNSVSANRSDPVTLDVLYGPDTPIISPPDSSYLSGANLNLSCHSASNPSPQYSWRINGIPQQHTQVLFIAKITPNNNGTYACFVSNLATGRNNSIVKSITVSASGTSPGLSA

For the molecule `CC(=O)N[C@@H](CCCCNC(=O)CN(CCN(CCN(CC(=O)O)CC(=O)O)CC(=O)O)CC(=O)O)C(=O)N[C@@H](Cc1ccc(O)cc1)C(=O)N[C@@H](CCCCNC(=O)CN(CCN(CCN(CC(=O)O)CC(=O)O)CC(=O)O)CC(=O)O)C(=O)N[C@@H](CCCCNC(=O)[C@H](CS)NC(=O)C=NNC(N)=S)C(N)=O` [IMP 192, Ac-Lys(DTPA)-Tyr-Lys(DTPA)-Lys(Tscg-Cys)-NH2] (Ac-K(DTPA)YK(DTPA)K([Cys-X1])-NH2), the tissue uptake at 2 h in series [1] (BALB/c, mouse, large intestine, total radioactivity, Lg.Int., 2 h) amounted to 1.53 ± 0.45 %ID/g; in series [1] (BALB/c, mouse, small intestine, total radioactivity, Small int, 2 h) it was 0.6 ± 0.06 %ID/g; in [1] (BALB/c, mouse, total radioactivity, Blood, 2 h), 0.21 ± 0.03 %ID/g; in series [1] (BALB/c, mouse, total radioactivity, Liver, 2 h), 0.22 ± 0.16 %ID/g; in [1] (BALB/c, mouse, total radioactivity, Muscle, 2 h), 0.05 %ID/g; in series [1] (BALB/c, mouse, Kidney, 2 h), 4.05 ± 0.6 %ID/g. Further, the tissue uptake at 2 h was 0.29 ± 0.08 %ID/g in [1] (BALB/c, mouse, Lungs, 2 h) and 0.09 ± 0.3 %ID/g in series [1] (BALB/c, mouse, Spleen, 2 h). Besides, the tissue uptake at 4 h came to 1.58 ± 0.7 %ID/g in series [1] (BALB/c, mouse, large intestine, total radioactivity, Lg.Int., 4 h); 0.21 ± 0.09 %ID/g in [1] (BALB/c, mouse, small intestine, total radioactivity, Small int, 4 h); 0.14 ± 0.04 %ID/g in [1] (BALB/c, mouse, total radioactivity, Blood, 4 h); 0.03 ± 0.01 %ID/g in series [1] (BALB/c, mouse, total radioactivity, Muscle, 4 h); 0.27 ± 0.33 %ID/g in [1] (BALB/c, mouse, total radioactivity, Stomach, 4 h); 3.21 ± 0.99 %ID/g in [1] (BALB/c, mouse, Kidney, 4 h). Further, the tissue uptake at 4 h in series [1] (BALB/c, mouse, Liver, 4 h) amounted to 0.09 ± 0.02 %ID/g; in series [1] (BALB/c, mouse, Lungs, 4 h), 0.19 ± 0.04 %ID/g; in series [1] (BALB/c, mouse, Spleen, 4 h), 0.05 ± 0.02 %ID/g. Also, the tissue uptake at 24 h in series [1] (BALB/c, mouse, large intestine, total radioactivity, Lg.Int., 24 h) was determined as 0.15 ± 0.14 %ID/g; in series [1] (BALB/c, mouse, small intestine, total radioactivity, Small int, 24 h) it was 0.03 ± 0.01 %ID/g; in series [1] (BALB/c, mouse, total radioactivity, Blood, 24 h) it was 0.05 ± 0.01 %ID/g; in series [1] (BALB/c, mouse, total radioactivity, Stomach, 24 h) it was 0.02 ± 0.01 %ID/g; in series [1] (BALB/c, mouse, Kidney, 24 h), 1.21 ± 0.08 %ID/g; in [1] (BALB/c, mouse, Liver, 24 h) it was 0.04 %ID/g. Moreover, the tissue uptake at 24 h in series [1] (BALB/c, mouse, Lungs, 24 h) is 0.05 %ID/g; in [1] (BALB/c, mouse, Spleen, 24 h), 0.03 ± 0.01 %ID/g; in series [2] (NCRNU nude, Tumor) it was 8.7 ± 3.3 %ID/g; in series [2] (nude (Taconic NCRNU), Blood), 0.6 ± 0.2 %ID/g; in [2] (nude (Taconic NCRNU), Kidney), 1.2 ± 0.3 %ID/g; in [2] (nude (Taconic NCRNU), Lungs), 0.3 ± 0.1 %ID/g. Besides, the tissue uptake at 1 h in series [1] (BALB/c, mouse, small intestine, total radioactivity, Small int, 1 h) amounted to 1.37 ± 0.75 %ID/g; in series [1] (BALB/c, mouse, total radioactivity, Blood, 1 h) it was 0.3 ± 0.09 %ID/g; in series [1] (BALB/c, mouse, total radioactivity, Liver, 1 h) it was 0.27 ± 0.18 %ID/g; in series [1] (BALB/c, mouse, total radioactivity, Muscle, 1 h), 0.1 ± 0.06 %ID/g; in series [1] (BALB/c, mouse, Kidney, 1 h), 4.16 ± 0.75 %ID/g; in series [1] (BALB/c, mouse, Lungs, 1 h), 0.5 ± 0.23 %ID/g. The tissue uptake at 1 h in series [1] (BALB/c, mouse, Spleen, 1 h) worked out at 0.08 ± 0.01 %ID/g; in series [2] (NCRNU nude, Liver), 0.9 ± 0.2 %ID/g; in series [2] (NCRNU nude, Spleen) it was 0.8 ± 0.2 %ID/g; in series [2] (NCRNU nude, Tumor) it was 14.3 ± 3.6 %ID/g; in [2] (nude (Taconic NCRNU), Blood), 3.5 ± 0.9 %ID/g; in [2] (nude (Taconic NCRNU), Kidney), 4.6 ± 0.7 %ID/g. The tissue uptake at 1 h in series [2] (nude (Taconic NCRNU), Lungs) stood at 3.6 ± 1.9 %ID/g. In addition, the excreta dose per gram or mL at 1 h in series [1] (BALB/c, mouse, total radioactivity, Urine, 1 h) came out at 169 ± 95 %ID/g. For the same molecule, the excreta dose per gram or mL at 2 h in [1] (BALB/c, mouse, total radioactivity, Urine, 2 h) came to 57 ± 15 %ID/g. Moreover, in series [1] (BALB/c, mouse, total radioactivity, Urine, 4 h), the excreta dose per gram or mL at 4 h amounted to 6.3 ± 4.53 %ID/g. Besides, the excreta dose per gram or mL at 24 h in [1] (BALB/c, mouse, total radioactivity, Urine, 24 h) amounted to 0.2 ± 0.02 %ID/g. The “% ID/g” value in series [1] (Muscle, 24 h) is 0.00 ± 0.0 % ID/g. Further, the “in vivo stability (activity excreted in urine, SE-HPLC with antibody)” value in series [1] (urine from a mouse in a pretargeting experiment) was “appears to be the intact peptide”. The tissue uptake at 0.5 h in series [2] (NCRNU nude, Kidney) turned out to be 9.9 ± 6.1 %ID/g; in series [2] (NCRNU nude, Liver) it was 1.4 ± 0.3 %ID/g; in series [2] (NCRNU nude, Spleen), 1.2 ± 0.4 %ID/g; in series [2] (NCRNU nude, Tumor), 11.4 ± 4.8 %ID/g; in series [2] (nude (Taconic NCRNU), Blood), 4.3 ± 1.2 %ID/g; in series [2] (nude (Taconic NCRNU), Lungs) it was 4.2 ± 3.4 %ID/g. The tissue uptake at 3 h in series [2] (NCRNU nude, Liver) came to 0.6 ± 0.1 %ID/g; in [2] (NCRNU nude, Spleen), 0.5 ± 0.1 %ID/g; in series [2] (NCRNU nude, Tumor), 12.6 ± 5.2 %ID/g; in [2] (nude (Taconic NCRNU), Blood) it was 1.7 ± 0.4 %ID/g; in series [2] (nude (Taconic NCRNU), Kidney), 2.4 ± 0.5 %ID/g; in series [2] (nude (Taconic NCRNU), Lungs), 1 ± 0.3 %ID/g. Moreover, the tissue uptake at 3 h is 2.6 ± 0.9 %ID/g in series [3] (Kidney), 0.3 ± 0.07 %ID/g in series [3] (Liver) and 0.1 ± 0.05 %ID/g in series [3] (Spleen). Further, the “Origin (ITLC 24 hr Saturated NaCl)” value (Cys Challenge) is on record as 91.3% Origin, the “Origin (ITLC 24 hr Saturated NaCl)” value (Kit Room Temp.) is 94% Origin and the “Origin (ITLC 24 hr Saturated NaCl)” value (Saline Dilution Room Temp.) is given as 97% Origin. For the same molecule, the “Solvent Front (ITLC 24 hr Saturated NaCl)” value runs as follows: (Cys Challenge) 7.4% Solvent; (Kit Room Temp.) 5% Solvent Front; (Saline Dilution Room Temp.) 2.3% Solvent. Besides, the “Peptide (HPLC)” value under setting [9] was 98% Peptide; the “Peptide (HPLC)” value (Cys Challenge, 19.5 hr) is 89% Peptide; the “Peptide (HPLC)” value (Kit Room Temp., 3 hr) came to 99% Peptide; the “Peptide (HPLC)” value (Kit Room Temp., 21 hr) turned out to be 95% Peptide; the “Peptide (HPLC)” value (Kit Room Temp., Initial Label) is given as 99% Peptide; the “Peptide (HPLC)” value under setting [10] is reported as 96% Peptide. The “Peptide (HPLC)” value under setting [11] is recorded as 99% Peptide. Besides, the “Void Vol (HPLC)” value is given as 2% Void Vol under setting [9]; 11% Void Vol (Cys Challenge, 19.5 hr); 1% Void Vol (Kit Room Temp., 3 hr); 5% Void Vol (Kit Room Temp., 21 hr); 1% Void Vol (Kit Room Temp., Initial Label); 4% Void Vol under setting [10]. Moreover, under setting [11], the “Void Vol (HPLC)” value is listed as 1% Void Vol.

Consider `NC(=O)[C@H](CCCCNC(=O)CNC(=O)CCC(=O)NCCc1cnc[nH]1)NC(=O)[C@H](Cc1ccc(O)cc1)NC(=O)[C@H](CCCCNC(=O)CNC(=O)CCC(=O)NCCc1cnc[nH]1)NC(=O)[C@H](Cc1ccccc1)NC(=O)CN1CCN(CC(=O)O)CCN(CC(=O)O)CCN(CC(=O)O)CC1` [IMP 237, DOTA-Phe-Lys(HSG)-Tyr-Lys(HSG)-NH2] ({DOTA}-FK([Gly-Suc-NH(2-(imidazol-4-yl)ethyl)])YK([Gly-Suc-NH(2-(imidazol-4-yl)ethyl)])-NH2), for which the “converted to the shorter retention time peak” value in series [4] is “about 70%”.

“hMN-14 × m679 F(ab′)2 bsMAb (bispecific antibody)” gave a Kd in [5] of 1.5 nM. Moreover, the ratio of the % ID/g of the peptide compared to the bsMAb in the tumor in series [6] came to 3.9. Besides, the percent of radiolabeled product shifting to a higher molecular weight in series [7] is more than 90%.

B1: humanized MN-14 (hMN-14) Fab′-SH, 99mTc-labeled (Fab, INN chains, looked up, V domains shown)
VH: EVQLVESGGGVVQPGRSLRLSCSASGFDFTTYWMSWVRQAPGKGLEWIGEIHPDSSTINYAPSLKDRFTISRDNAKNTLFLQMDSLRPEDTGVYFCASLYFGFPWFAYWGQGTPVTVSS
VL: DIQLTQSPSSLSASVGDRVTITCKASQDVGTSVAWYQQKPGKAPKLLIYWTSTRHTGVPSRFSGSGSGTDFTFTISSLQPEDIATYYCQQYSLYRSFGQGTKVEIK
modifications: Fab′ 99mTc label
In series [8], B1 gave an immunoreactive fraction of 92%.

These data come from US20060140858A1, “Drug pre-targeting by means of bi-specific antibodies and hapten constructs comprising a carrier peptide and the active agent(s)” (Immunomedics, Inc., priority 2002, published 2006).
